Data set [1] deals with grape downy mildew pathogen (Plasmopara viticola). As to the kind of experiment: Grape downy mildew control test (Test Example 2). It counts as in vivo. The following applies: Plasmopara viticola, foliar, 168 h; 100 ppm by mass, sprayed on grape leaf disc (variety Chardonnay) before inoculation; blotch area ratio seven days after inoculation, 20° C. On the procedure: 5 parts by mass of the compound according to the present invention, 93.5 parts by mass of dimethylformamide, and 1.5 parts by mass of polyoxyethylene alkylaryl ether were mixed and dissolved to prepare an emulsion (I) containing 5% by mass of an active ingredient.
The control value was calculated according to the following formula.
Control value (%)=100−{blotch area ratio in treated area/blotch area ratio in untreated area}×100
Water was added to the emulsion (I) such that the concentration of the heterocyclic compound became 100 ppm by mass, and then the heterocyclic compound was dissolved therein to obtain a pharmaceutical solution. Then, the pharmaceutical solution was sprayed on a leaf disc of grape (variety “Chardonnay”) placed on agar in a 6-well plate. After air-drying, the leaf disc on which the pharmaceutical solution was sprayed was inoculated with zoosporangia of grape downy mildew pathogen (Plasmopara viticola) in a suspension by spraying the suspension thereon (treated area). As a control, a leaf disc on which no pharmaceutical solution was sprayed was inoculated in the same way as mentioned above (untreated area). The resultant leaf discs were left in a moist chamber at 20° C. Seven days after inoculation, the grape leaf discs were visually observed to measure the blotch area ratio to calculate the control value.

Data set [2] concerns tomato late blight pathogen (Phylophihora infeslans). As to the kind of experiment: whole plant or invertebrate. The following applies: Phytophthora infestans, 96 h, read-out: Control value. Format: in vivo.

Experimental findings from patent US20220142165A1 (priority 2019, published 2022) are described below.

The structures appear in SMILES notation.

On to `Clc1ccc(C(Oc2ccc3nnsc3c2)c2nnco2)nc1` (stereo not drawn) [b-12], for which the melting point lay within 133 to 134 °C. Moreover, the pest or weed control at 100 ppm in data set [1] is no less than 75%. Moreover, the pest or weed control at 125 ppm in data set [2] is no less than 75%.

Compound `CO/N=C/c1cc(C(Oc2ccc3nc(C4CC4)sc3c2)c2nnco2)ncc1F` (stereo not drawn) [b-76] came in with a melting point of 103 to 104 °C. Besides, the pest or weed control at 100 ppm in data set [1] is no less than 75%. In data set [2], the pest or weed control at 125 ppm is no less than 75%.

As to `C#CCO/N=C/c1ccnc(C(Oc2ccc3nc(C)sc3c2)c2nnco2)c1` (stereo not drawn) [b-26], the melting point fell in the range of 118 to 121 °C. Also, the pest or weed control at 100 ppm in data set [1] is no less than 75%. Further, the pest or weed control at 125 ppm in data set [2] was no less than 75%.

The compound `CO/N=C/c1cc(C(Oc2cc(C)c3nc(C)sc3c2)c2nnco2)ncc1F` (stereo not drawn) [b-47] came in with a melting point of 151 to 154 °C. For the same compound, the pest or weed control at 100 ppm in data set [1] is no less than 75%. Moreover, the pest or weed control at 125 ppm in data set [2] was no less than 75%.

On to `CCc1cc(OC(c2cc(/C=N/OC)c(F)cn2)c2nnco2)cc2sc(C)nc12` (stereo not drawn) [b-46], for which the melting point lay within 145 to 147 °C. Further, the pest or weed control at 100 ppm in data set [1] was no less than 75%. The pest or weed control at 125 ppm in data set [2] is no less than 75%.

In the case of `CO/N=C/c1cc(C(Oc2cc(F)c3ncsc3c2)c2nnco2)ncc1F` (stereo not drawn) [b-45], the melting point was 137 to 139 °C. The pest or weed control at 100 ppm in data set [1] is no less than 75%. Besides, the pest or weed control at 125 ppm in data set [2] is no less than 75%.

Consider `Fc1ccc(C(Oc2ccc3nnsc3c2)c2nnco2)nc1` (stereo not drawn) [b-10], for which the melting point lay within 141 to 142 °C. Further, the pest or weed control at 100 ppm in data set [1] is no less than 75%. In data set [2], the pest or weed control at 125 ppm is no less than 75%.

In the case of `CO/N=C/c1cc(C(Oc2ccc3ncsc3c2)c2nnco2)ncc1F` (stereo not drawn) [b-15], the melting point lay in the range of 136 to 138 °C. In addition, the pest or weed control at 100 ppm in data set [1] was no less than 75%. In addition, the pest or weed control at 125 ppm in data set [2] was no less than 75%.

`C=Cc1nc2ccc(OC(c3cc(/C=N/OC)c(F)cn3)c3nnco3)cc2s1` (stereo not drawn) [b-63] yielded a melting point of 88 to 89 °C. The pest or weed control at 100 ppm in data set [1] is no less than 75%. For the same compound, the pest or weed control at 125 ppm in data set [2] was no less than 75%.

Compound `CO/N=C/c1cc(C(Oc2ccc3nnsc3c2)c2nnco2)ncc1F` (stereo not drawn) [b-58] had a melting point of 134 to 135 °C. Also, in data set [1], the pest or weed control at 100 ppm was no less than 75%. Also, in data set [2], the pest or weed control at 125 ppm was no less than 75%.

For `CO/N=C/c1cc(C(Oc2ccc3nc(C)sc3c2)c2nnco2)ncc1F` (stereo not drawn) [b-27], the melting point lay in the range of 129 to 131 °C. Moreover, the pest or weed control at 100 ppm in data set [1] was no less than 75%. Besides, the pest or weed control at 125 ppm in data set [2] was no less than 75%.

As to `CCCc1cc(OC(c2cc(/C=N/OC)ccn2)c2nnco2)cc2scnc12` (stereo not drawn) [b-24], the melting point was 80 to 82 °C. The pest or weed control at 100 ppm in data set [1] is no less than 75%. In addition, the pest or weed control at 125 ppm in data set [2] is no less than 75%.

As for `CCc1cc(OC(c2cc(/C=N/OC)c(F)cn2)c2nnco2)cc2scnc12` (stereo not drawn) [b-44], the melting point fell in the range of 114 to 117 °C. In data set [1], the pest or weed control at 100 ppm was no less than 75%. The pest or weed control at 125 ppm in data set [2] was no less than 75%.

In turn, `CNc1nc2ccc(OC(c3cc(/C=N/OC)c(F)cn3)c3nnco3)cc2s1` (stereo not drawn) [b-74] showed a melting point of 181 to 182 °C. Further, in data set [1], the pest or weed control at 100 ppm was no less than 75%. Further, the pest or weed control at 125 ppm in data set [2] is no less than 75%.

With `CO/N=C/c1cc(C(Oc2cc3scnc3cc2F)c2nnco2)ncc1F` (stereo not drawn) [b-57], the melting point was 150 to 151 °C. In addition, the pest or weed control at 100 ppm in data set [1] was no less than 75%. Besides, the pest or weed control at 125 ppm in data set [2] is no less than 75%.

Consider `C=Cc1cc(OC(c2cc(/C=N/OC)c(F)cn2)c2nnco2)cc2sc(C)nc12` (stereo not drawn) [b-48], for which the melting point lay within 116 to 119 °C. Further, the pest or weed control at 100 ppm in data set [1] was no less than 75%. The pest or weed control at 125 ppm in data set [2] was no less than 75%.

`CO/N=C/c1cc(C(Oc2cc(OC)c3ncsc3c2)c2nnco2)ncc1F` (stereo not drawn) [b-84] displayed a melting point of 103 to 104 °C. In data set [1], the pest or weed control at 100 ppm is no less than 75%. Also, the pest or weed control at 125 ppm in data set [2] was no less than 75%.

In turn, `CO/N=C/c1cc(C(Oc2ccc3nc(CF)sc3c2)c2nnco2)ncc1F` (stereo not drawn) [b-66] gave a melting point of 133 to 134 °C. For the same compound, in data set [1], the pest or weed control at 100 ppm was no less than 75%. Also, in data set [2], the pest or weed control at 125 ppm is no less than 75%.

`CCc1cc(OC(c2cc(/C=N/OCCOC)c(F)cn2)c2nnco2)cc2sc(C)nc12` (stereo not drawn) [b-87] came in with a melting point of 138 to 139 °C. The pest or weed control at 100 ppm in data set [1] was no less than 75%. In data set [2], the pest or weed control at 125 ppm was no less than 75%.

Consider `CCO/N=C/c1ccnc(C(Oc2ccc3ncsc3c2)c2nnco2)c1` (stereo not drawn) [b-17], for which the melting point lay in the range of 113 to 114 °C. Further, the pest or weed control at 100 ppm in data set [1] was no less than 75%. The pest or weed control at 125 ppm in data set [2] is no less than 75%.

As to `CO/N=C/c1ccnc(C(Oc2cc(F)c3ncsc3c2)c2nnco2)c1` (stereo not drawn) [b-22], the melting point fell in the range of 113 to 148 °C. Moreover, the pest or weed control at 100 ppm in data set [1] was no less than 75%. Also, the pest or weed control at 125 ppm in data set [2] is no less than 75%.

With `Fc1cnc(C(Oc2ccc3ncsc3c2)c2nnco2)cc1/C=N/OCC1CC1` (stereo not drawn) [b-50], the melting point lay within 129 to 131 °C. In addition, the pest or weed control at 100 ppm in data set [1] is no less than 75%. For the same compound, in data set [2], the pest or weed control at 125 ppm is no less than 75%.

Take `CO/N=C/c1cc(C(Oc2ccc3ncsc3c2)c2nnco2)ncc1C#N` (stereo not drawn) [b-40]: the melting point was 129 to 131 °C. For the same compound, the pest or weed control at 100 ppm in data set [1] was no less than 75%. In addition, in data set [2], the pest or weed control at 125 ppm is no less than 75%.
